One molecule from patent US12077555B2, “STAT degraders and uses thereof” (Kymera Therapeutics, Inc., priority 2019, dated 2024) can be followed below.

What all share (format): cell-based
One assay concerns the target STAT3 (Homo sapiens, UniProt P40763). Nature of the assay: Deep tandem mass tag proteomics. To be noted: Molm-16 and SU-DHL-1 cells, 8 hours, FIGS. 4 and 13. On the procedure: Total protein was isolated from cells (e.g., Molm-16 and SU-DHL-1) and treated with degrader for 8 hours. Vehicle (DMSO)-treated cells were used as controls. Protein lysates, 2 biological replicates per condition, were prepared at 4 C in 8M urea, 75 mM NaCl, 1 mM EDTA in 50 mM Tris HCl (pH 8), 10 mM NaF, phosphatase inhibitor cocktail 2 (1:100; Sigma, P5726) and cocktail 3 (1:100; Sigma, P0044), 2 μg/mL aprotinin (Sigma, A6103), 10 μg/mL Leupeptin (Roche, 11017101001), and 1 mM PMSF (Sigma, 78830). Lysates were spun at 20,000 rcf for 10 min and supernatant (containing extracted proteins) was transferred to a clean microcentrifuge tube. Protein concentrations were determined using the Pierce BCA assay. Protein lysates were reduced with 5 mM dithiothreitol (Thermo Scientific, 20291) for 45 min at room temperature and alkylated with 10 mM iodoacetamide (Sigma, A3221) for an additional 45 min. […] Online fractionation was performed using a nanoflow Proxeon EASY-nLC 1200 UHPLC system (Thermo Fisher Scientific) and separated peptides were analyzed on a benchtop Orbitrap Q Exactive plus mass spectrometer (Thermo Fisher Scientific). All data were analyzed using Spectrum Mill software package (Agilent Technologies). […] In total, 10,992 proteins were quantified. […]

In another assay the test system is DEL cells. The assay is described as follows: CellTiter-Glo cell viability, DEL.
In a further assay the test system is PD-L1. The assay is described as follows: STAT3 RT-qPCR assay, PD-L1 mRNA. To be noted: SU-DHL-1 cells. As to the method:
SU-DHL-1 cells were treated with compounds for a designed time. 0.3-0.6 mL lysis buffer with 2-mercaptoethanol was added to the collected cell pellet or monolayer cells. The cells were vortexed until the cell was dispersed and the cells appear lysed. One volume of 70% ethanol was added to each volume of cell homogenate and vortex. 700 μL of the sample was transferred to the spin cartridge and centrifuged at 12000 g for 15s at RT. The flow-through was discarded and the process repeated until the entire samples had been processed. 700 ul wash buffer I was added to the spin cartridge and centrifuged at 12000 g for 15s at RT and the flow-through was discarded. 500 μL wash buffer II with ethanol was added to the spin cartridge and centrifuged at 12000 g for 15s at RT and the flow-through was discarded. The process was then repeated. The spin cartridge was centrifuged at 12000 g for 2 min to dry the membrane with bound RNA. 30-100 μL RNase-free water was added to the center of the spin cartridge and incubated for 1 min at RT. […] The concentration of the RNA was quantitated using Nano-Drop. cDNA was formed from the RNA by reverse transcription and qPCR of the cDNA with primer of the gene of interest and housekeeping gene was preformed using the volumes below: […]

A further assay has as its system SU-DHL-1 cells. The assay is described as follows: CellTiter-Glo cell viability, SU-DHL-1. On the procedure:
Compound-mediated viability effect on MOLM-16 and SU-HDL-1 cells was quantitatively determined using the CellTiter-Glo® Luminescent Cell Viability Assay kit from Promega (Catalog number G7572) following manufacturer's recommended procedures.
Day 0: 60 nL of compounds/DMSO were stamped to the cell plate as on the recommended platemap. Compound precipitation was observed. Cells were centrifuged at 800 rpm for 5 min, suspended with culture medium, and counted with Countess (Invitrogen). The cell density was adjusted to the recommend concentration. 30 μL of cell solution (2000 cells/well) was added to the assay plate according to the platemap. 30 μL of media was added to column 2 and column 23 as on the platemap. The final concentration of the compounds except for the reference compound Paclitaxel was from 10 μM, 3-fold dilution and 11 dose (Paclitaxel started at 500 nM). The final DMSO concentration was 0.2%. The assay plate was incubated at 37° C., 5% CO2 for 4 days.
Day 4: The assay plate was equilibrated to RT for ˜10 minutes. Compound precipitation was observed (96h). To determine cell viability, 30 μL of CellTiter Glo reagent was added to each well and the assay plate was centrifuged at 1000 rpm for 30 second, incubated at room temperature for 10 min, and analyzed by detecting the luminescence using a multimode plate reader (EnVision 2105, PerkinElmer). The data was then analyzed by software Prism 7.0 from GraphPad and the dose response curves were fit using a three-parameter logistic equation to calculate EC50.

Another assay deals with KARPAS-299 cells. Nature of the assay: CellTiter-Glo cell viability, KARPAS-299.

Sequence of STAT3 (P40763 whole entry): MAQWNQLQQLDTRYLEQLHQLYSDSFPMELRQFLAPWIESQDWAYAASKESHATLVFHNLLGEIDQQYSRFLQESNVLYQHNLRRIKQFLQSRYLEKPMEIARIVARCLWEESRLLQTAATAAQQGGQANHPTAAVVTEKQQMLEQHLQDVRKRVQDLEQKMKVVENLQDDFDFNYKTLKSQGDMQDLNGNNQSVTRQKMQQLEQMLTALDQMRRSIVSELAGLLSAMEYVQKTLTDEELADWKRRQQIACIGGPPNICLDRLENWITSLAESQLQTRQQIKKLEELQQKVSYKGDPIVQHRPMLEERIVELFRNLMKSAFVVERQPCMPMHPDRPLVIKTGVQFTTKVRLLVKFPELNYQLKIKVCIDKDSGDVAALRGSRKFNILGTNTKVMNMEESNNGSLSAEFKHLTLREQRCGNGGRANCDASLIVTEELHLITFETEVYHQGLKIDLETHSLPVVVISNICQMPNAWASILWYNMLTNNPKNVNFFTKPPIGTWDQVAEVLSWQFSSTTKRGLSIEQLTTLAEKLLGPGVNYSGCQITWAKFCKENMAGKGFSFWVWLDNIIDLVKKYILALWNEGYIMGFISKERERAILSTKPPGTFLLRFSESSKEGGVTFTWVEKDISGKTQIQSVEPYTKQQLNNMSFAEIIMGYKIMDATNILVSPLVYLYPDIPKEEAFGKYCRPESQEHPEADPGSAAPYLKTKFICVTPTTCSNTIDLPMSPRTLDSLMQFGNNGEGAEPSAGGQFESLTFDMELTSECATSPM

Regarding `Cn1c(=O)n(C2CCC(=O)NC2=O)c2ccc(C[C@H]3CC[C@@H](CC(=O)N4CC[C@H]5CC[C@@H](C(=O)N[C@@H](CCC(N)=O)C(=O)NC(c6ccccc6)c6ccccc6)N5C(=O)[C@@H](NC(=O)c5cc6cc(C(=O)P(=O)(O)O)ccc6[nH]5)C4)CC3)cc21` (stereo partly drawn) [Compound I-174, 2-[[(5S,8S,10aR)-8-[[(1S)-3-carbamoyl-1-(diphenylmethylcarbamoyl)propyl]carbamoyl]-6-oxo-3-[2-[(1s,4s)-4-[[1-(2,6-dioxopiperidin-3-yl)-3-methyl-2-oxo-1,3-benzodiazol-5-yl]methyl]cyclohexyl]acetyl]-octahydropyrrolo[1,2-a][1,5]diazocin-5-yl]carbamoyl]-1H-indole-5-carbonylphosphonic acid], at STAT3, the “selectivity of degradation for STAT3 vs >10,000 other detected proteins” value was “highly selective for STAT3”. In addition, the 50% inhibitory concentration (IC50) in the assay on DEL cells (96 h, ALCL (ALK+), Day 4, read-out: CTG, IC50 μM, Day 4) came out at 0.016 µM; in the assay with PD-L1 (Homo sapiens, 24 hr) it was 0.029 µM; in the assay with SU-DHL-1 cells (Homo sapiens, 96 h, SU-DHL-1, ALCL (ALK+), Day 4, read-out: CTG, IC50 μM, Day 4) it was 0.015 µM; with KARPAS-299 cells (Homo sapiens, 96 h, KARPAS-299, ALCL (ALK+), Day 4, read-out: CTG, IC50 μM, Day 4), 0.084 µM. Besides, the “CTG (% Max inh), Day 4” value is reported as “(95) %” in the assay on DEL cells (ALCL (ALK+), Day 4); “(>95) %” in the assay on SU-DHL-1 cells (SU-DHL-1, ALCL (ALK+), Day 4); “(90) %” in the assay on KARPAS-299 cells (KARPAS-299, ALCL (ALK+), Day 4). The cell proliferation entry is on record as “inhibit” in the assay on DEL cells (FIG. 16); “inhibit” with SU-DHL-1 cells (SU-DHL-1, FIG. 5B, FIG. 16); “inhibit” in the assay on KARPAS-299 cells (KARPAS-299, FIG. 16). For the same molecule, in the assay on PD-L1 (FIG. 5A, FIG. 15), the “STAT3-dependent gene expression of PDL-1” value is “downregulates”.
